Measured values as given in paper PMC4137987 (Chemical Research in Toxicology, 2014).

Columns and labels:
[1] = Excretion in urine and feces over 24 h after inhalation of PCB3; type: in vivo, female Sprague–Dawley (SD) rats; conditions: 0–24 h; PCB3 35 μg/rat; n = 3
[2] = Serum concentration and clearance of PCB3 metabolites after inhalation; type: in vivo, female Sprague–Dawley (SD) rats; conditions: 0 h postexposure; PCB3 26 μg/rat; mean ± SD, n = 3
[3] = tested on: granulosa and theca cells derived from porcine ovary; conditions: cited from earlier work
[4] = Serum chemistry and serum free thyroxine; type: in vivo, female Sprague–Dawley (SD) rats; conditions: rats exposed to PCB3 for 2 h
urinary 8-oxo-dG = experiment: Urinary 8-oxo-dG analysis; type: in vivo, female Sprague–Dawley (SD) rats; conditions: exposed rats; composite 24 h urine; not significant vs control (p = 0.23)

Oc1ccc(-c2ccc(Cl)cc2)cc1 [4′OH-PCB3]
Metabolite excreted in urine, percentage of dose [1]: 1.0 ± 0.5%
Serum concentration [2]: 7 ± 1 ng/mL

Clc1ccc(-c2ccccc2)cc1 [PCB3, 4-chlorobiphenyl]
Estradiol level in the medium [3]: significant increase
Unchanged PCB3 in feces, percentage of dose [1]: 4 ± 2%
Unchanged PCB3 in urine, percentage of dose [1]: 2 ± 1%
Serum chemistry parameters (renal function, serum protein, T4, electrolyte balance, pancreas function, liver function, lipid metabolism) [4]: within normal ranges
8-oxo-dG level in 24 h urine (urinary 8-oxo-dG): 160 ± 35 pg/mg creatinine
